Assay results from the supplement of paper PMC10307832.

Columns and labels:
Assay in all cases: relative viability (nuclei count vs DMSO), 5 days (fraction); higher = more cells survive
Motesanib + Trametinib = compound: CC1(C)CNc2cc(NC(=O)c3cccnc3NCc3ccncc3)ccc21 [Motesanib] + CC(=O)Nc1cccc(-n2c(=O)n(C3CC3)c(=O)c3c(Nc4ccc(I)cc4F)n(C)c(=O)c(C)c32)c1 [Trametinib] (partner 0.02 µM)
Procedure, shortened: (§1)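 A single step with final 0.05% Triton X-100, 1% formaldehyde and 1 ug/ml Hoechst fixed the cells and stained nuclei 5 days after treatment. Lung cancer cell lines in 1536-well plates had been treated by pin tool the day after seeding with one drug alone or a fixed anchor-drug dose plus five library-drug doses (not always all listed) in √10 steps, and nuclei were counted on 4× images. Relative viability is the ratio of nuclei in treated wells to nuclei in vehicle wells, taken as the median of duplicate plates.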

[1] = compound: C[C@@]1(C(=O)Nc2ccc(F)nc2)CCCN1c1nc(Nc2cc(C3CC3)n[nH]2)c2cccn2n1 + O=C(c1cc(Cc2n[nH]c(=O)c3ccccc23)ccc1F)N1CCN(C(=O)C2CC2)CC1 [Olaparib] (partner 8 µM)
Procedure, shortened: as §1

Motesanib + Luminespib = compound: CC1(C)CNc2cc(NC(=O)c3cccnc3NCc3ccncc3)ccc21 [Motesanib] + CCNC(=O)c1noc(-c2cc(C(C)C)c(O)cc2O)c1-c1ccc(CN2CCOCC2)cc1 [Luminespib] (partner 0.01 µM)
Procedure, shortened: as §1

[2] = compound: C[C@@]1(C(=O)Nc2ccc(F)nc2)CCCN1c1nc(Nc2cc(C3CC3)n[nH]2)c2cccn2n1 + CS(=O)(=O)N1CCN(Cc2cc3nc(-c4cccc5[nH]ncc45)nc(N4CCOCC4)c3s2)CC1 [Pictilisib] (partner 1 µM)
Procedure, shortened: as §1

| Cell Line | relative viability (Motesanib + Trametinib; first compound 0.01 µM) | relative viability (Motesanib + Trametinib; first compound 0.03162 µM) | relative viability (Motesanib + Trametinib; first compound 0.1 µM) | relative viability (Motesanib + Trametinib; first compound 0.3162 µM) | relative viability (Motesanib + Trametinib; first compound 1 µM) | relative viability ([1]; first compound 0.04 µM) | relative viability ([1]; first compound 0.1265 µM) | relative viability ([1]; first compound 0.4 µM) | relative viability ([1]; first compound 1.265 µM) | relative viability (Motesanib + Luminespib; first compound 0.01 µM) | relative viability (Motesanib + Luminespib; first compound 0.03162 µM) | relative viability (Motesanib + Luminespib; first compound 0.1 µM) | relative viability (Motesanib + Luminespib; first compound 0.3162 µM) | relative viability (Motesanib + Luminespib; first compound 1 µM) | relative viability ([2]; first compound 0.04 µM) | relative viability ([2]; first compound 0.1265 µM) | relative viability ([2]; first compound 0.4 µM) | relative viability ([2]; first compound 1.265 µM) |
| --- | --- | --- | --- | --- | --- | --- | --- | --- | --- | --- | --- | --- | --- | --- | --- | --- | --- | --- |
| SK-LU-1 | 0.424 | 0.591 | 0.476 | 0.536 | 0.544 | 0.414 | 0.361 | 0.396 | 0.403 | 0.219 | 0.188 | 0.195 | 0.204 | 0.158 | 0.546 | 0.453 | 0.428 | 0.502 |
| SK-MES-1 | 0.575 | 0.587 | 0.593 | 0.565 | 0.617 | 0.718 | 0.702 | 0.557 | 0.373 | 0.84 | 0.842 | 0.986 | 0.785 | 0.721 | 0.335 | 0.268 | 0.286 | 0.306 |
| SW 1573 | 0.613 | 0.503 | 0.721 | 0.593 | 0.628 | 0.38 | 0.409 | 0.341 | 0.253 | 0.152 | 0.266 | 0.207 | 0.323 | 0.335 | 0.438 | 0.251 | 0.377 | 0.455 |
